This is an account of results in US20240002547A1, “T[…]-TARGETING CONSTRUCTS AND USES THEREOF” (AEBI LTD., priority 2016, published 2024).

Positions of bridges follow the written chain, without caps; N, C: chain ends. No end group written: not given here.

Series [1] can be described thus: In vivo stability of fluorescently marked peptide in blood after tail vein injection. Particulars: mice. The procedure:
The stability of the fluorescently marked peptide E13.3 alone or bound to 8-armed PEG was evaluated in vivo by injecting the compounds to the tail vein of mice. The blood of the animals was analyzed for the presence of the peptide (fluorescence) at different time intervals. It can be clearly seen from the result presented in FIG. 14 that t0.5 of the free peptide is much shorter (about several minutes) than that of the peptides bound to PEG (t0.5 of about 3.5 hours).

In series [2] the target is human Epidermal Growth Factor Receptor (EGFR) (Homo sapiens, UniProt P00533). Kind of series: Screening of cyclopeptides binding to human EGFR. The procedure: Using the technique described in WO 2007/010525, a series of new peptides (cyclopeptides) binding to human Epidermal Growth Factor Receptor (EGFR) were generated and tested. After identification of several potential peptide, a few further cycles of optimization were performed.

For a further series, the target named is T1, human EGFR (Homo sapiens, UniProt P00533).
T1 construct: human EGFR in human epidermoid carcinoma cell line A431; endogenous in cells; host or cells: A431
Kind of series: EGFR autophosphorylation ELISA in A431 cells. In kind it is cell-based. How it is done:
The effect of several peptides on the phosphorylation levels of human EGFR in human epidermoid carcinoma cell line A431 was assessed by ELISA test. Briefly, exponentially growing A431 cell culture were detaches from the flask with 0.25% trypsin/EDTA solution, and 200 μl of cell suspension were transferred to 96-well plates at the concentration of 2×10^5 cells/ml and grown for about 3 days. Following medium exchange, 50 μl EGF dilutions and EGF+peptides (50 ng/ml and 0.2 mg/ml, respectively) were added. The plate was incubated for 7.5 min at 37° C. EGF-containing medium was removed and the cells were fixed by 150 ul of fixing solution and incubated for 20 min. at room temperature, following which the plate was washed 2 times with triton washing solution. The level of phosphorylates was assessed by incubation with phospho-EGFR (Tyr1045) antibody as a primary antibody and Anti-rabbit IgG as a secondary antibody. […] The normalized percent of inhibition (of the EGFR auto-phosphorylation is presented in FIG. 11 and Table 4. The normalized percent of inhibition is calculated as the fluorescence signal of the test item divided by the fluorescence signal of the control that contains no test item, with the same concentration of EGF.
Efficacy of different concentration of the selected peptide was assessed by ELISA in a similar was as in Example 12. […]
A general note: ELISA stands for enzyme-linked immunosorbent assay.

The next series deals with T2, eEF2 (Homo sapiens, UniProt P13639).
T2 construct: in vitro transcription/translation system using HeLa Lysate system; host or cells: HeLa lysate (1-Step Human Coupled IVT Kit-DNA)
Kind of series: in vitro transcription/translation system (HeLa lysate, 1-Step Human Coupled IVT Kit, pCFE-GFP DNA). In kind it is biochemical. To be noted: peptide 5 μM; 4 hr at 30° C.; versus positive control without peptide and non eEF2-binding control peptide. How it is done:
The effect of Tox1 and Tox2 was tested in the in vitro transcription/translation system using HeLa Lysate system 1-Step Human Coupled IVT Kit-DNA (ThermoFisher Scientific). The following peptides were tested: GW (Tox1), DRB RB, TB2 (Tox2), and BW. In addition, a non eEF2-binding control peptide, GR, was also tested.
The IVT Kit components were mixed, and one portion was taken out to serve as a negative control. The rest of the mix was supplemented with pCFE-GFP DNA. This DNA, when transcribed and translated gives a fluorescence protein, GFP. The extent of fluorescence gives a measure of the extent of protein synthesis.
The mix was split into […] aliquots. Each aliquot was supplemented with lml of one concentration of a specific peptide. A positive control was supplemented with lml of PBS. The reaction mixtures were incubated 4 hr at 30° C.
[…] of PBS were added to each reaction mixtures. The mixtures were transferred to a 96 well black ELISA plate, and the fluorescence was measured at ex/em 482/512 nm.

For series [3], the target named is T3, eEF2 (Human; Yeast derived) (Homo sapiens, UniProt P13639).
T3 construct: host or cells: yeast
Kind of series: ELISA binding of phage-displayed peptides to eEF2 or BSA. Particulars: M13 phages expressing the peptide; read after 1.5 min and 30 min; BSA negative control. The procedure: Binding of Tox 1 and Tox2 to eEF2 was tested by ELISA using eEF2 or BSA as ligands.
0.25 μg of target proteins, eEF2 (Human; Yeast derived) or BSA (negative control) were applied to several wells of maxisorp plate (NUNC) in 50 μl PBS and incubated over night at 4° C. The solutions were removed, and each well was supplemented with 280 μl blocking solution (BSA 2 mg/ml). The plate was incubated 1 hr at 25° C.
To 1.5 ml tubes 100 μl of blocking solution+10^9 pfu (plaque forming units) of M13 phages that express the following peptides: eEF2-binding: RB, LBR1, TB2 (Tox2), Y02, GW (Tox1), DRB, PY, BW were added. The plate was incubated 1 hr at 25° C. The solution were discarded and the wells were washed 7 times with 280 μl washing solution (Tween 20 0.05%).
Each well was supplemented with 50 μl of HRP/Anti-M13 Monoclonal Conjugate (GE Healthcare) diluted 1:5000. The plate was incubated 1 hr at 25° C. The solutions were discarded and the wells were washed 7 times with 280 μl washing solution (Tween 20 0.05%). Each well was supplemented with 50 μl of TMB (T0440; Sigma).
The plate was photographed using a scanner after incubation time of 1.5 min and 30 min.

The next series has as its target human PD-L1 (Homo sapiens, UniProt Q9NZQ7). Kind of series: Screening of cyclopeptides binding to human PD-L1. The procedure:
Using the technique described in WO 2007/010525, a series of new peptides (cyclopeptides) binding to binding to a human PD-L1 were generated and tested. After identification of several potential peptides, a few further cycles of optimization were performed.

Another series has as its system A549. Kind of series: Viability of A549 cells, alamarBlue. In kind it is cell-based, human. Particulars: all tested concentrations. The procedure: (§1) The anti-cancer activity of E13.3 was assessed using several cancer cell lines (A549—human lung carcinoma cell line and FaDu—human pharyngeal carcinoma cell line). The cell cultures were incubated in the presence or absence of E13.3 (at different concentrations) and tested for viability using alamarBlue reagent. The results are presented on FIG. 15.
For orientation: Resazurin is reduced to fluorescent resorufin, in cell work by metabolically active cells.

Another series has as its system NCI-H1650 tumor. Kind of series: Accumulation of fluorescein-labelled E13.3-PEG in kidney, liver and tumor of xenograft mice. Type of series: in vivo. The procedure:
E13.3-PEG was labeled with Flourescein and injected IV to Xenograft mice bearing subcutaneous NCI-H1650 tumor (lung cancer). Following anesthesia, kidney, liver and tumor were collected at specific time points and the fluorescence was measured.

The next series has as its system FaDu. Kind of series: Viability of FaDu cells, alamarBlue. Type of series: cell-based, human. Particulars: all tested concentrations. The procedure: as §1
The next series relates to MCF-7 cells. Kind of series: Toxicity of PEG constructs on MCF-7 cells, microscope images after 48 hours. Type of series: cell-based, human. The procedure: (§2) A construct comprising a multi-arm-PEG scaffold bound to E13.3 targeting peptide having the sequence SEQ ID NO: 1 ([…]) and a toxin selected from BIMBH3 (referred also as BIM and having the sequence SEQ ID NO: 5 […]) or a combination of Tox1 and Tox2 was generated. The scaffolds were prepared as described in Example 5 and is denoted as PEG-E13.3-Tox1-Tox2 and PEG-13.3-BIM, accordingly
(§3) A431 cells (human squamous carcinoma express about 100,000 copies of EGFR on each cell) and MCF-7 cells (breast cancer cell expressing about 3,000 copies of EGFR on each cell) were thawed and cultivated to achieve exponentially growing cultures. Cells were collected, counted and seeded at the density of 7,000 cells/well and 5,000 cells/well, respectively, in a 96 well tissue culture plate.
(§4) The plates were incubated until the next day at the following conditions: 37±1° C., humidified, and 5±0.5% CO2/air, to enable cells adherence to the wells.
(§5) The cell viability of A549 cell was tested using Alamar Blue viability assay. At the next day following the seeding, Growth Media was replaced with 200 μl Assay Media that contained 2% FBS and Test Items at different concentrations of the construct (1, 3 and 8 μM), or Vehicle Control (PBS; concentration-0). Plates were incubated at 37±1° C., humidified 5±0.5% CO2/air. […]

For another series, the system named is A431 cells. Kind of series: Toxicity of PEG constructs on A431 cells, microscope images after 48 hours. In kind it is cell-based, human. How it is done:
as §2, §3, §4, §5

[4] abbreviates: 1, 3 and 8 μM, 48 hours, images.

Sequence of human PD-L1 (Q9NZQ7 19-290): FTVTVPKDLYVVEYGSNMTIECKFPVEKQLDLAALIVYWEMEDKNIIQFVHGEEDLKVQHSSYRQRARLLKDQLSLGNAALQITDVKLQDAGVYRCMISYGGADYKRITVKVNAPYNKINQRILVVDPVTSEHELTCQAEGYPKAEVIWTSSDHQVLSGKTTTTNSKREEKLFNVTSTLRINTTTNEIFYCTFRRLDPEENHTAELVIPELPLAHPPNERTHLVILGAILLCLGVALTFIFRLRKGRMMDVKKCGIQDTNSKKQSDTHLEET

Consider CHPGDKQEDPNCLQADK [E13.3], for which the t0.5 in blood entry in [1] (free peptide) is given as “about several”. In addition, in series [2], the “affinity to the receptor at its binding site” value was “high affinity”. Also, the “Normalized Percent of EGFR autophosphorylation inhibition” value at human EGFR (A431, EGF 50 ng/ml, peptide 0.2 mg/ml, 7.5 min at 37° C., phospho-EGFR (Tyr1045)) stood at 99.4%. In addition, the IC50 at human EGFR (Example 12, read-out: calculated IC50 of EGFR autophosphorylation inhibition) was 2000 nM.
For the substance “Cys-Arg-Arg-Gly-Ser-Arg-Ala-Ser-Gly-Ala-His-Cys (CRRGSRASGAHC; disulfide 1-12) [Tox2]”, in the series with eEF2, the “GFP fluorescence (extent of protein synthesis)” value was “highest effect”. Further, the “binding to eEF2 (ELISA signal)” value in series [3] was “strongest effect”.
Take “Cys-Ser-Ala-Arg-Trp-Gly-Pro-Thr-Met-Pro-Trp-Cys (CSARWGPTMPWC; disulfide 1-12) [Tox1]”: the “GFP fluorescence (extent of protein synthesis)” value with eEF2 is reported as “highest effect”.
Regarding “CysGluGlyLeuProAlaAspTrpAlaAlaAlaCys (CEGLPADWAAAC; also: cyclic, mode not given here) [PD-L1-GR]”, the “affinity to the receptor at its binding site” value in the series with human PD-L1 is given as “high affinity”.
Take “E13.3-PEG: E13.3 bound to 8 arm PEG Succinimidyl Carboxymethyl Ester, MW 73,000 (Ac-CHPGDKQEDPNCLQADK; not fully specified; cysteine pairing not given here; also: one amine Dde-protected, site not given here)”: the “viability of cancer cells” value in the series with A549 is “successfully reduce the viability”. Also, the t0.5 in blood entry in series [1] (bound to 8-armed PEG) is given as “about 3.5 hours”. Also, the “interaction with and internalization by cancer cells isolated from tumor” value with NCI-H1650 tumor (1 hour and 24 hour after IV injection) is “most of the cancer cells interact with E13.3-PEG and internalize the fluorescent peptide”. Moreover, in the series on NCI-H1650 tumor (IV, NCI-H1650 xenograft mice), the “fluorescence in kidney and liver” value was “fast increase in the fluorescence in kidney and liver with a typical elimination curve afterwards”; the “fluorescence in tumor (cancer cells)” value is recorded as “accumulated in the cancer cells”. For the same substance, the “viability of cancer cells” value with FaDu is “successfully reduce the viability”.
Consider “PEG-E13.3-Tox1-Tox2: multi-arm-PEG scaffold bound to E13.3 targeting peptide and a combination of Tox1 and Tox2 (peptide 1 Ac-CHPGDKQEDPNCLQADK; peptide 2 CSARWGPTMPWC; peptide 3 CRRGSRASGAHC; not fully specified (bridges); cysteine pairing not given here; also: multi-arm PEG scaffold carrying E13.3, Tox1 and Tox2)”, for which the “effect on cell aggregates / proportion of dead cells” value in the series with MCF-7 cells (setting [4]) and with A431 cells (setting [4]) was “proportion of dead cells increased” each time. The “potency of cell death compared with the BIM construct” value with MCF-7 cells (images at 48 hours) and in the series on A431 cells (images at 48 hours) was “more potent” each time.

Usually IC50 stands for the midpoint of a concentration-inhibition curve.
